pEC50, pIC50: −log10 of the molar value. Like-named read-outs stand apart in the source and are kept apart here.

In patent publication US10669272B2, “Substituted naphthyridinone compounds useful as T cell activators” (BRISTOL-MYERS SQUIBB COMPANY, priority 2018, dated 2020) one finds IC50 and EC50 data, which are given here for 14 compounds.

One assay addresses T1, human DGKα (Homo sapiens, UniProt P23743).
T1 construct: TVMV protease cleavage site (C); Hexa-His (C); made in house; host or cells: Sf9 insect cells (baculovirus, Bac-to-Bac)
Briefly: DGKα LIPGLO assay (extruded liposome substrate), in vitro DGK inhibition. The settings on record: liposome (LIPGLO) assay; read-out: DGKa LIPGLO IC50. The class given is biochemical.

Another assay has as its target T2, human DGKζ (Homo sapiens, UniProt Q13574).
T2 construct: TVMV protease cleavage site (C); Hexa-His (C); made in house; host or cells: Sf9 insect cells (baculovirus, Bac-to-Bac)
Briefly: DGKζ LIPGLO assay (extruded liposome substrate), in vitro DGK inhibition. The settings on record: liposome (LIPGLO) assay; read-out: DGKz LIPGLO IC50. Type of assay: biochemical.

The test system of assay [1] is OT-1 CD8+ T cells with SIINFEKL-loaded MC38 tumor cells. Briefly: Murine cytotoxic T lymphocyte assay (IFN-γ, OT-1 CTL with MC38 tumor cells). Type of assay: cell-based, mouse. The settings on record: read-out: msCTL INFg IC50. The method in brief: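 IFN-γ was quantified by AlphaLISA in supernatants after 24 h co-culture at 37° C. Effectors were OT-1 CD8+ CTLs (5-day peptide/mIL2 expansion), exposed 1 h to DGK inhibitors before mixing 1:10 with MC38 tumor cells loaded 3 h with 1 μg/mL SIINFEKL peptide.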

The test system of another assay is naïve human CD8 T cells. Kind of assay: Human CD8 T cells IFN-γ assay.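 Note: Naïve human CD8 T cells stimulated with plate-bound anti-CD3 and soluble anti-CD28, IFN-γ in supernatant quantified by AlphaLISA and converted to pg/mL.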 The class given is cell-based. The settings on record: normalized to 3 μM reference compound with anti-CD3 plus anti-CD28 as 100% activation, read-out: HuCD8 INFG Normalized EC50.
The next assay concerns Human venous whole blood. Kind of assay: Human whole blood IFN-γ assay.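 Note: blood from healthy donors exposed to compound for 1 h before stimulation with anti-CD3 and anti-CD28 at 1 µg/mL each, IFN-γ quantified in supernatant by AlphaLISA.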 Type of assay: cell-based. To be noted: human whole blood, normalized to 3 μM reference compound with anti-CD3 plus anti-CD28 as 100% activation, read-out: INFg Whole Blood Normalized Agonist EC50.

T1 sequence (P23743 with tags, fused parts or gaps): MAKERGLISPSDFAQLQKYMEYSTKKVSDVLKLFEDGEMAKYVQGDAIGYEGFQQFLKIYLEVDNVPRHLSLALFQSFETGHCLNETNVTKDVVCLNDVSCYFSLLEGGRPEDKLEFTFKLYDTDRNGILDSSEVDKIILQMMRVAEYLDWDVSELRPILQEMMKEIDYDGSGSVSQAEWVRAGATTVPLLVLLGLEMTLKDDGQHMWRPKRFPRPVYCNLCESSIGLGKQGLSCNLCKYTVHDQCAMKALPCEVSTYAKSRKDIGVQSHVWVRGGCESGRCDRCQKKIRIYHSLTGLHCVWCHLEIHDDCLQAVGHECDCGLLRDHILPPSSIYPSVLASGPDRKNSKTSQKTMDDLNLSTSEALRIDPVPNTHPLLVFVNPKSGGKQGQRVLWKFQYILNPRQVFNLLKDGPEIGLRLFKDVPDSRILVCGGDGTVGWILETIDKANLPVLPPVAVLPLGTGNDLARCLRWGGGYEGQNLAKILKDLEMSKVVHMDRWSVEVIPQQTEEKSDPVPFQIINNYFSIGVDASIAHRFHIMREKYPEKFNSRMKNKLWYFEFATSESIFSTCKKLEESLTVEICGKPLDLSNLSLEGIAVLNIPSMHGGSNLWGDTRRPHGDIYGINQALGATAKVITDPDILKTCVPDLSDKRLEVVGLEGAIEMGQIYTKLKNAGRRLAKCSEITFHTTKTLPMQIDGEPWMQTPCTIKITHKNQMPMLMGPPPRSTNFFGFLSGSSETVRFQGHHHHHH
T2 sequence (Q13574 with tags, fused parts or gaps isoform Q13574-4): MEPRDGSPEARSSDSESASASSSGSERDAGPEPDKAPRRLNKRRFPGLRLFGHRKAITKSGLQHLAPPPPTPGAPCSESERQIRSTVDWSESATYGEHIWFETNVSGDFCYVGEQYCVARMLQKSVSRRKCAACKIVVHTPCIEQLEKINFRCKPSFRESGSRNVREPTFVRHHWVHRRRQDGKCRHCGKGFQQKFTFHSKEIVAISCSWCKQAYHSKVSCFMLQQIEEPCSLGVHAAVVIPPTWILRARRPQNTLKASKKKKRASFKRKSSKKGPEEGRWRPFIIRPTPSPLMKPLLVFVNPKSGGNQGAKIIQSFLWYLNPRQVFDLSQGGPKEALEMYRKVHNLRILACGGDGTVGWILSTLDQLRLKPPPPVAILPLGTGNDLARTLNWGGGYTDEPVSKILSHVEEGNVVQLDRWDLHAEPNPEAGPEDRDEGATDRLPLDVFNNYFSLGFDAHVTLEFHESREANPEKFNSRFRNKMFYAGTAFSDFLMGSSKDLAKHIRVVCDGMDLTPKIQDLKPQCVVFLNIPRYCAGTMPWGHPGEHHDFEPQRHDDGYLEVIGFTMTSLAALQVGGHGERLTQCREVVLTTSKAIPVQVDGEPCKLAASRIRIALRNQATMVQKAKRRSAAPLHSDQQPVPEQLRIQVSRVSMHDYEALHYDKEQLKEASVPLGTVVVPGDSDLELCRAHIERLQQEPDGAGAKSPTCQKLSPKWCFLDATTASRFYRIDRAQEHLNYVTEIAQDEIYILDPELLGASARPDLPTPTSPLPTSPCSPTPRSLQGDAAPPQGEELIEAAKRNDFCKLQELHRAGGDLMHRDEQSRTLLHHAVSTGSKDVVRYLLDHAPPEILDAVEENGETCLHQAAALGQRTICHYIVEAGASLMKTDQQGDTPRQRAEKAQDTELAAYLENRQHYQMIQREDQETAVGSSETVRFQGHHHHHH
Experimental for Human venous whole blood: Human Whole Blood IFN-γ Assay
Human venous whole blood (22.5 μL per well), obtained from healthy donors, was pre-treated with compounds for one hour at 37° C. in a humidified 95% air/5% CO2 incubator. The blood was stimulated with 2.5 μL anti-human CD3 and anti-CD28 mAb at a final concentration of 1 μg/mL each for 24 hours at 37° C. IFN-γ in the supernatants was measured using AlphLISA kit (Cat # AL217).

In the case of `CC(C)[C@@H]1CN(c2cc(=O)n(C)c3ccc(C#N)nc23)CCN1C(c1ccc(F)cc1)c1ccc(F)cc1` [Example 168, (R)-8-(4-(bis(4-fluorophenyl)methyl)-3-isopropylpiperazin-1-yl)-5-methyl-6-oxo-5,6-dihydro-1,5-naphthyridine-2-carbonitrile], the pIC50 (commonly the IC50 on a negative log10 scale, so that one unit is a factor of ten) at human DGKα is 5.12; at human DGKζ it was 3.62; in assay [1] (Mus musculus, MC-38) it was 6.29. Moreover, the pEC50 (in general, the EC50 on a negative log10 scale, so that one unit is a factor of ten) is 5.00 in the assay with naïve human CD8 T cells (Homo sapiens, T-cell, 20 h) and 5.00 in the assay with Human venous whole blood (Homo sapiens, 24 h).
With `C[C@@H]1CN(c2c(Br)c(=O)n(C)c3ccc(C#N)nc23)[C@@H](C)CN1C(c1ccc(F)cc1)c1ccc(F)cc1` [Example 19, 8-((2S,5R)-4-(bis(4-fluorophenyl)methyl)-2,5-dimethylpiperazin-1-yl)-7-bromo-5-methyl-6-oxo-5,6-dihydro-1,5-naphthyridine-2-carbonitrile], the pIC50 on human DGKα was 4.38; on human DGKζ it was 3.62; in assay [1] (Mus musculus, MC-38), 5.06. For the same compound, the pEC50 in the assay with naïve human CD8 T cells (Homo sapiens, T-cell, 20 h) was 5.00; with Human venous whole blood (Homo sapiens, 24 h) it was 4.70.
`CC[C@@H]1CN(c2c(C#N)c(=O)n(C)c3ccc(C#N)nc23)CCN1C(c1ccc(Cl)cc1)c1ccc(Cl)cc1` [Example 179, (R)-8-(4-(bis(4-chlorophenyl)methyl)-3-ethylpiperazin-1-yl)-5-methyl-6-oxo-5,6-dihydro-1,5-naphthyridine-2,7-dicarbonitrile]: the pIC50 on human DGKα was 6.06; on human DGKζ, 6.06; in assay [1] (Mus musculus, MC-38) it was 7.31. Further, the pEC50 was 7.28 with naïve human CD8 T cells (Homo sapiens, T-cell, 20 h) and 6.00 in the assay on Human venous whole blood (Homo sapiens, 24 h).
With `CC[C@@H]1CN(c2cc(=O)n(C)c3ccc(C#N)nc23)CCN1C(c1ccc(F)cc1)c1ccc(F)cc1` [Example 172, (R)-8-(4-(bis(4-fluorophenyl)methyl)-3-ethylpiperazin-1-yl)-5-methyl-6-oxo-5,6-dihydro-1,5-naphthyridine-2-carbonitrile], the pIC50 was 5.72 on human DGKα; 5.85 at human DGKζ; 7.41 in assay [1] (Mus musculus, MC-38). Besides, the pEC50 in the assay with naïve human CD8 T cells (Homo sapiens, T-cell, 20 h) was 7.44; with Human venous whole blood (Homo sapiens, 24 h), 5.89.
Consider `C[C@@H]1CN(c2c(F)c(=O)n(C)c3ccc(C#N)nc23)[C@@H](C)CN1C(c1ccc(F)cc1)c1ccc(F)cc1` [Example 157, 8-((2S,5R)-4-(bis(4-fluorophenyl)methyl)-2,5-dimethylpiperazin-1-yl)-7-fluoro-5-methyl-6-oxo-5,6-dihydro-1,5-naphthyridine-2-carbonitrile], for which the pIC50 was 6.46 at human DGKα; 6.42 on human DGKζ; 7.11 in assay [1] (Mus musculus, MC-38). Moreover, the pEC50 in the assay with naïve human CD8 T cells (Homo sapiens, T-cell, 20 h) was 7.14; with Human venous whole blood (Homo sapiens, 24 h), 6.28.
Consider `COC(=O)C1CN(C(c2ccc(F)cc2)c2ccc(F)cc2)CCN1c1c(C#N)c(=O)n(C)c2ccc(C#N)nc12` (single isomer, unassigned) [Example 116, Methyl 4-(bis(4-fluorophenyl)methyl)-1-(3,6-dicyano-1-methyl-2-oxo-1,2-dihydro-1,5-naphthyridin-4-yl)piperazine-2-carboxylate], for which the negative logarithm of the IC50 (pIC50) at human DGKα was 5.02; at human DGKζ, 5.44; in assay [1] it was 6.25. For the same compound, the pEC50 was 6.80 in the assay on naïve human CD8 T cells (Homo sapiens, T-cell, 20 h) and 5.48 with Human venous whole blood (Homo sapiens, 24 h).
Take `COC(=O)C1CN(c2cc(=O)n(C)c3ccc(C#N)nc23)CCN1C(c1ccc(F)cc1)c1ccc(F)cc1` (single isomer, unassigned) [Example 39, Methyl 1-(bis(4-fluorophenyl)methyl)-4-(6-cyano-1-methyl-2-oxo-1,2-dihydro-1,5-naphthyridin-4-yl)piperazine-2-carboxylate]: the pIC50 at human DGKα is 3.62; on human DGKζ it was 5.03; in assay [1], 5.72. Further, the pEC50 with naïve human CD8 T cells was 6.66; in the assay on Human venous whole blood it was 5.01.
`C[C@@H]1CN(c2c(C3CC3)c(=O)n(C)c3ccc(C#N)nc23)[C@@H](C)CN1C(c1ccc(F)cc1)c1ccc(F)cc1` [Example 20, 8-((2S,5R)-4-(bis(4-fluorophenyl)methyl)-2,5-dimethylpiperazin-1-yl)-7-cyclopropyl-5-methyl-6-oxo-5,6-dihydro-1,5-naphthyridine-2-carbonitrile]: the pIC50 was 4.02 at human DGKα; 3.89 at human DGKζ; 5.00 in assay [1] (Mus musculus, MC-38). The pEC50 with naïve human CD8 T cells (Homo sapiens, T-cell, 20 h) is 5.00; in the assay with Human venous whole blood (Homo sapiens, 24 h), 4.70.
As for `COc1cc(F)ccc1C(c1ccc(F)cc1)N1C[C@@H](C)N(c2c([N+](=O)[O-])c(=O)n(C)c3ccc(C#N)nc23)C[C@@H]1C` (stereo in doubt) [Example 120, 8-((2R,5S)-4-((4-fluoro-2-methoxyphenyl)(4-fluorophenyl)methyl)-2,5-dimethylpiperazin-1-yl)-5-methyl-7-nitro-6-oxo-5,6-dihydro-1,5-naphthyridine-2-carbonitrile], the pIC50 at human DGKα is 3.96; at human DGKζ, 3.62; in assay [1] (Mus musculus, MC-38), 5.33. Besides, the pEC50 in the assay with naïve human CD8 T cells (Homo sapiens, T-cell, 20 h) is 6.00; in the assay with Human venous whole blood (Homo sapiens, 24 h) it was 4.70.
In the same order, the values of `C[C@@H]1CN(c2c(F)c(=O)n(C)c3ccc(C#N)nc23)CCN1C(c1ccc(F)cc1)c1ccc(F)cc1` [Example 30, (R)-8-(4-(bis(4-fluorophenyl)methyl)-3-methylpiperazin-1-yl)-7-fluoro-5-methyl-6-oxo-5,6-dihydro-1,5-naphthyridine-2-carbonitrile] are 6.30, 6.37, 7.82, 6.37 and 5.80.
In the case of `C[C@@H]1CN(c2cc(=O)n(C)c3ccc(C#N)nc23)[C@@H](C)CN1C(c1ccc(F)cc1)c1ccccn1` (single isomer, unassigned) [Example 197], the pIC50 was 6.70 at human DGKα; 5.43 at human DGKζ; 7.09 in assay [1] (Mus musculus, MC-38). For the same compound, the pEC50 is 7.46 in the assay on naïve human CD8 T cells (Homo sapiens, T-cell, 20 h) and 5.96 with Human venous whole blood (Homo sapiens, 24 h).
With `COC(=O)C1CN(C(c2ccc(F)cc2)c2ccc(F)cc2)CCN1c1c(C#N)c(=O)n(C)c2ccc(C#N)nc12` (single isomer, unassigned) [Example 117, Methyl 4-(bis(4-fluorophenyl)methyl)-1-(3,6-dicyano-1-methyl-2-oxo-1,2-dihydro-1,5-naphthyridin-4-yl)piperazine-2-carboxylate], the values for the pIC50 (at human DGKα; at human DGKζ; in assay [1]) were 6.46, 5.14 and 6.57, respectively. The pEC50 was 6.55 in the assay with naïve human CD8 T cells and 5.60 in the assay on Human venous whole blood.
Regarding `C[C@@H]1CN(c2c(Cl)c(=O)n(C)c3ccc(C#N)nc23)[C@@H](C)CN1C(c1ccc(F)cc1)c1ccc(F)cc1` [Example 18, 8-((2S,5R)-4-(bis(4-fluorophenyl)methyl)-2,5-dimethylpiperazin-1-yl)-7-chloro-5-methyl-6-oxo-5,6-dihydro-1,5-naphthyridine-2-carbonitrile], the pIC50 at human DGKα is 6.10; on human DGKζ it was 4.92; in assay [1] (Mus musculus, MC-38) it was 5.00. Further, the negative-log EC50 (pEC50) in the assay with naïve human CD8 T cells (Homo sapiens, T-cell, 20 h) is 6.60; in the assay on Human venous whole blood (Homo sapiens, 24 h), 4.70.
Regarding `COCC1CN(c2cc(=O)n(C)c3ccc(C#N)nc23)CCN1C(c1ccc(F)cc1)c1ccc(F)cc1` (single isomer, unassigned) [Example 93, 8-(4-(bis(4-fluorophenyl)methyl)-3-(methoxymethyl)piperazin-1-yl)-5-methyl-6-oxo-5,6-dihydro-1,5-naphthyridine-2-carbonitrile], the pIC50 on human DGKα is 5.37; on human DGKζ, 6.17; in assay [1], 7.09. The negative-log EC50 (pEC50) was 7.20 in the assay with naïve human CD8 T cells and 5.85 with Human venous whole blood.
